Consider 24 molecules from ChEMBL document CHEMBL1131406, “Tripeptide growth hormone secretagogues” (Bioorg Med Chem Lett, 1998).

The species entered for assay [1] is Rattus norvegicus. The assay is described as follows: Tested in vitro for growth hormone release from rat pituitary cells. It is filed as functional, cell-based, Pituitary gland cell.
Assay [2] is filed under the species Rattus norvegicus. Put plainly: Compound was tested in vitro for growth hormone release from rat pituitary cells; Inactive. The note with it: pituitary gland cell. The assay is classed as functional, cell-based.
Setting [3] is: Rattus norvegicus, Pituitary gland cell.

As a reminder, the EC50 is the midpoint of the concentration-response curve. In turn, `CCOC(=O)[C@@H](CCc1ccccc1)NC(=O)[C@@H](Cc1c[nH]c2ccccc12)NC(=O)C(C)(C)N` yielded a half-maximal effective concentration (EC50) in assay [1] (pituitary gland cell) of 50 nM. This counts as double-digit nanomolar.

For `CCOC(=O)[C@H](Cc1cccc2ccccc12)NC(=O)[C@@H](Cc1c[nH]c2ccccc12)NC(=O)C(C)(C)N`, the midpoint of the response in assay [1] (setting [3]), the EC50, lay at 40 nM.

In assay [1] (setting [3]), `CC(C)(N)C(=O)N[C@H](Cc1c[nH]c2ccccc12)C(=O)NCCCCc1ccccc1` returned an EC50 of 700 nM.

Turning to `CCNC(=O)[C@@H](CCc1ccccc1)NC(=O)[C@@H](Cc1c[nH]c2ccccc12)NC(=O)C(C)(C)N`, the EC50 in assay [1] (setting [3]) came to 246 nM.

Take `CC(C)(N)C(=O)N[C@H](Cc1c[nH]c2ccccc12)C(=O)NCc1ccc2ccccc2c1`: the response in assay [1] (setting [3]) was half-maximal at 85 nM (EC50).

`CC(C)(N)C(=O)N[C@H](Cc1c[nH]c2ccccc12)C(=O)N[C@H](CCc1ccccc1)C(=O)O`: in assay [1] (setting [3]), the EC50 was > 500 nM.

With `CCOC(=O)[C@H](Cc1ccccc1)N(C)C(=O)[C@@H](Cc1c[nH]c2ccccc12)NC(=O)C(C)(C)N`, in assay [1] (setting [3]), the EC50 was 40 nM.

With `CCOC(=O)[C@H](CCCc1ccccc1)NC(=O)[C@@H](Cc1c[nH]c2ccccc12)NC(=O)C(C)(C)N`, the EC50 in assay [1] (setting [3]) is 820 nM.

`CC(C)(N)C(=O)N[C@H](Cc1c[nH]c2ccccc12)C(=O)NCCc1ccccc1`: in assay [2], the EC50 entry is on record as “Not Active”.

Turning to `CCOC(=O)[C@H](CCc1ccccc1)N(C)C(=O)[C@@H](Cc1c[nH]c2ccccc12)NC(=O)C(C)(C)N`, the 50% effective concentration (EC50) in assay [1] (setting [3]) is 270 nM. This counts as sub-micromolar.

For `CCOC(=O)[C@@H](CCc1ccccc1)NC(=O)[C@H](Cc1c[nH]c2ccccc12)NC(=O)C(C)(C)N`, the EC50 entry in assay [2] is “Not Active”.

For the molecule `CC(C)(N)C(=O)N[C@H](Cc1c[nH]c2ccccc12)C(=O)NCCc1cccc2ccccc12`, a half-maximal effect in assay [1] (setting [3]) (EC50) was put at 860 nM.

In turn, `CCOC(=O)[C@@H](Cc1ccccc1)NC(=O)[C@@H](Cc1c[nH]c2ccccc12)NC(=O)C(C)(C)N` registered an EC50 in assay [1] (setting [3]) of 350 nM. This EC50 lies about 2.5-fold lower than the previous one.

On to `CC(C)(N)C(=O)N[C@H](Cc1c[nH]c2ccccc12)C(=O)NCc1cccc2ccccc12`, for which the half-maximal effective concentration (EC50) entry in assay [2] is on record as “Not Active”.

With `CCOC(=O)[C@@H](CCc1ccccc1)NC(=O)[C@@H](Cc1cccc2ccccc12)NC(=O)C(C)(C)N`, the EC50 in assay [1] (setting [3]) was > 50 nM.

On to `COC(=O)[C@@H](CCc1ccccc1)NC(=O)[C@@H](Cc1c[nH]c2ccccc12)NC(=O)C(C)(C)N`, for which, in assay [1] (setting [3]), the EC50 came to 18 nM.

The molecule `CCOC(=O)[C@H](Cc1ccc2ccccc2c1)NC(=O)[C@@H](Cc1c[nH]c2ccccc12)NC(=O)C(C)(C)N` showed a half-maximal effective concentration (EC50) in assay [1] (setting [3]) of 2000 nM.

As for `CCOC(=O)[C@@H](CCCc1ccccc1)NC(=O)[C@@H](Cc1c[nH]c2ccccc12)NC(=O)C(C)(C)N`, in assay [1] (setting [3]), the response was half-maximal at 1140 nM (EC50).

For the molecule `CC(C)OC(=O)[C@@H](CCc1ccccc1)NC(=O)[C@@H](Cc1c[nH]c2ccccc12)NC(=O)C(C)(C)N`, the response in assay [1] (setting [3]) was half-maximal at 4 nM (EC50).

As for `CC(C)(N)C(=O)N[C@H](Cc1c[nH]c2ccccc12)C(=O)NCCCc1ccccc1`, the concentration giving a half-maximal response (EC50) in assay [1] (setting [3]) turned out to be 390 nM.

As to `CCOC(=O)[C@@H](CCc1ccccc1)NC(=O)[C@@H](Cc1ccc2ccccc2c1)NC(=O)C(C)(C)N`, in assay [2], the EC50 result is listed as “Not Active”.

In assay [1] (setting [3]), `CC(C)(N)C(=O)N[C@H](Cc1c[nH]c2ccccc12)C(=O)N[C@H](CCc1ccccc1)C(=O)OCc1ccccc1` showed an EC50 of 500 nM.

Molecule `CCOC(=O)[C@H](CCc1ccccc1)NC(=O)[C@@H](Cc1c[nH]c2ccccc12)NC(=O)C(C)(C)N` registered an EC50 in assay [1] (setting [3]) of 3 nM.

Molecule `CCOC(=O)[C@H](Cc1ccccc1)NC(=O)[C@@H](Cc1c[nH]c2ccccc12)NC(=O)C(C)(C)N` had a concentration giving a half-maximal response (EC50) in assay [1] (setting [3]) of 240 nM.
